Data set [1] can be described thus: Cerebral cortex level after oral administration (brain penetration), LC-MS. The format is in vivo, mouse. The procedure: Bioavailability and brain penetration of GPPGPAG was performed as previously described ([Yang et al., 2017]). GPPGPAG (500 mg) was dissolved in 750 μL of physiological saline. […] The mice were euthanized at 10, 60, and 180 min after administration. Blood was collected and centrifuged at 10,000 g and 4°C for 10 min to yield plasma. Plasma aliquots (200 μL) were extracted with methanol, dried, sonicated, and resolubilized in 50% methanol (100 μL). The cerebral cortex was also collected after complete saline perfusion for removing blood. The cortex was homogenized, extracted with methanol, dried, sonicated, and resolubilized in 50% methanol (100 µL). To calculate GPPGPAG concentration in the plasma and brain using liquid chromatography-mass spectrometry (LC-MS), a standard curve was generated by analyzing standard amounts of GPPGPAG solubilized in methanol at a dosage of 1, 5, and 10 μg/ml. A Thermo Scientific Accela high-performance LC (HPLC) system, interfaced with an LTQ Orbitrap XL hybrid Fourier Transform Mass Spectrometer (Thermo Fisher Scientific), was used to chemically profile GPPGPAG and the biosamples. The LC analysis was performed on a InertSustain AQ-C18 (4.6 mm ID × 50 mm, 5 μm, GL Sciences, Tokyo, Japan) held at 40°C with a flow rate of 200 μL/min 0.01% formic acid in water (a) and methanol (b) were used in the mobile phase, with the following linear elution gradient: 0–15 min, 10–90% b; 15–18 min, 90–10% b; 18–20 min, 10% b. The following electrospray interface (ESI) parameters were used: spray voltage, 4.5 kV; capillary voltage, […]; tube lens, 150 V; capillary temperature, 330°C; sheath gas flow rate, 50 units; aux gas flow rate, 10 units. […]
[…] (A) Total ion chromatogram (upper) and extracted ion current chromatogram (lower) of standard GPPGPAG (m/z = 552.2753) at 10 μg/ml for quantification of (B) and (C) data. […] In total ion chromatogram (upper) and extracted ion current chromatogram (lower) of m/z = 552.2753, no peaks were detected. […] In total ion chromatogram and extracted ion current chromatogram of m/z = 552.2753, peaks matching the retention time of GPPGPAG were detected. (D) Total ion chromatogram (upper) and extracted ion current chromatogram (lower) of standard GPPGPAG (m/z = 552.2716) at 10 μg/ml for quantification of (E) and (F) data. […] In total ion chromatogram (upper) and extracted ion current chromatogram (lower) of m/z = 552.2716, no peaks were detected. […] In total ion chromatogram and extracted ion current chromatogram of m/z = 552.2716, peaks matching the retention time of GPPGPAG were detected. Quantified amount of GPPGPAG in the plasma (G) and cerebral cortex (H) are shown. *p < 0.05, ****p < 0.0001 vs, saline 10 min, one-way ANOVA with post hoc Bonferroni’s test, mean ± standard error, n = 3 mice.

Another data set is described as follows: Stability in saline. The format is physicochemical. The conditions noted are these: 5 μg/ml, 37°C, 0, 10, 60, 180 min, LC-MS, n = 1. The procedure: (§1) For intraventricular administration, GPPGPAG was dissolved in artificial cerebrospinal fluid (ACSF; 130 mM NaCl, 24 mM NaHCO3, 3.5 mM KCl, 1.3 mM Na2HPO4, 2 mM CaCl2, 2 mM MgCl2 6H2O, and 10 mM glucose at pH 7.4) for use. GPPGPAG or ACSF was continuously injected for 28 days into the left ventricle (bregma: −0.2 mm, lateral: 1.0 mm, depth: −3.0 mm) using Alzet Osmotic Pump (1004, DURECT Corporation, CA, United States) and ALZET Brain Infusion Kit 3 (DURECT Corporation). Based on the amount of CSF produced which was 18 μL/h and the pump flow rate of 0.11 μL/h, the peptide in the pump was estimated to be diluted 164 times in the CSF to reach a final concentration 10 nM which was the effective dose in the cultured neuron experiments. Therefore 1.64 µM GPPGPAG was loaded into the pump. Stability of GPPGPAG in saline, mouse plasma and mouse cerebral cortex was confirmed by LC-MS quantification. GPPGPAG was mixed with saline or plasma at 5 μg/ml concentration. Otherwise, GPPGPAG was mixed with cortical lysate at 6.5 μg/g of cortex. After incubation at 37°C for 0, 10, 60, and 180 min, samples were dried up and served to LC-MS. Areas of MS peaks of GPPGPAG were quantified. […]
(§2) Stability of GPPGPAG in biological fluids.
(§3) (A) GPPGPAG was mixed with saline at 5 μg/ml concentration. (B) GPPGPAG was mixed with mouse plasma at 5 μg/ml concentration. […]

A short description of data set [2]: Stability in mouse plasma. The format is in vitro ADME. The conditions noted are these: 5 μg/ml, 37°C, 0, 10, 60, 180 min, LC-MS, n = 1. The procedure:
as §1, §2, §3

No end group written: not given here.

For GPPGPAG [GPPGPAG], the “transferred amount in the brain” value in data set [1] (calculated for 10 mg/kg per orally from the cortex level at 500 mg/mouse) is recorded as 0.598 pmol. In addition, in data set [1] (cerebral cortex, po, 180 min after p.o. administration of 500 mg/mouse, ddY mice, female, LC-MS, mean of n = 3), the tissue level at time at 3 h was found to be 2750 ng/g. In data set [1] (ddY mice, female, 8 weeks, 500 mg/mouse p.o. single dose, cortex after saline perfusion, LC-MS, n = 3), the “detection in the cerebral cortex” value is recorded as “detected 10 min later”. Moreover, the “detection in plasma and cerebral cortex” value in data set [1] (male mouse, 9 weeks old, p.o. administration, data not shown) was “similarly detected in the plasma and cerebral cortex”. For the same substance, the “stability, amount remaining (MS peak area)” value was “not declined during 180 min-incubation” in “Stability in saline” and “gradually reduced after 60-min incubation” in data set [2].

These data come from article PMC8160438, “A Novel Heptapeptide, GPPGPAG Transfers to the Brain, and Ameliorates Memory Dysfunction and Dendritic Atrophy in Alzheimer’s Disease Model Mice” (Frontiers in Pharmacology, 2021).
